Common to all, as to type: biochemical
The target of one assay is T1, human Src kinase (Homo sapiens, UniProt P12931).
T1 construct: full length recombinant human Src kinase; purchased Upstate Biotechnology 14-117; host or cells: baculovirus-infected cells
The experiment in a line: Src inhibition assay (A: radioactivity-based or B: spectrophotometric coupled-enzyme assay). The settings on record: assay A or B not specified; inhibitor concentration not given. The protocol: The compounds were evaluated as inhibitors of human Src kinase using either a radioactivity-based assay or spectrophotometric assay.
The compounds were assayed as inhibitors of full length recombinant human Src kinase (from Upstate Biotechnology, cat. no. 14-117) expressed and purified from baculo viral cells. Src kinase activity was monitored by following the incorporation of ^33p from ATP into the tyrosine of a random poly Glu-Tyr polymer substrate of composition, Glu:Tyr=4:1 (Sigma, cat. no. P-0275). The following were the final concentrations of the assay components: 0.05 M HEPES, pH 7.6, 10 mM MgCl2, 2 mM DTT, 0.25 mg/ml BSA, 10 μM ATP (1-2 uCi ^33P-ATP per reaction), 5 mg/ml poly Glu-Tyr, and 1-2 units of recombinant human Src kinase. In a typical assay, all the reaction components with the exception of ATP were pre-mixed and aliquoted into assay plate wells.
Inhibitors dissolved in DMSO were added to the wells to give a final DMSO concentration of 2.5%. The assay plate was incubated at 30° C. for 10 min before initiating the reaction with ^33P-ATP. After 20 min of reaction, the reactions were quenched with 150 μl of 10% trichloroacetic acid (TCA) containing 20 mM Na3PO4. The quenched samples were then transferred to a 96-well filter plate (Whatman, UNI-Filter GF/F Glass Fiber Filter, cat no. 7700-3310) installed on a filter plate vacuum manifold. Filter plates were washed four times with 10% TCA containing 20 mM Na3PO4 and then 4 times with methanol. 200 μl of scintillation fluid was then added to each well. The plates were sealed and the amount of radioactivity associated with the filters was quantified on a TopCount scintillation counter. The radioactivity incorporated was plotted as a function of the inhibitor concentration. The data was fitted to a competitive inhibition kinetics model to get the Ki for the compound.
The ADP produced from ATP by the human recombinant Src kinase-catalyzed phosphorylation of poly Glu-Tyr substrate was quanitified using a coupled enzyme assay (Fox et al (1998) Protein Sci 7, 2249). In this assay one molecule of NADH is oxidised to NAD for every molecule of ADP produced in the kinase reaction. The disappearance of NADH can be conveniently followed at 340 nm.
The following were the final concentrations of the assay components: 0.025 M HEPES, pH 7.6, 10 mM MgCl2, 2 mM DTT, 0.25 mg/ml poly Glu-Tyr, and 25 nM of recombinant human Src kinase. Final concentrations of the components of the coupled enzyme system were 2.5 mM phosphoenolpyruvate, 200 μM NADH, 30 μg/ml pyruvate kinase and 10 μg/ml lactate dehydrogenase.
In a typical assay, all the reaction components with the exception of ATP were pre-mixed and aliquoted into assay plate wells. Inhibitors dissolved in DMSO were added to the wells to give a final DMSO concentration of 2.5%. The assay plate was incubated at 30 C. for 10 min before initiating the reaction with 100 μM ATP. The absorbance change at 340 nm with time, the rate of the reaction, was monitored on a molecular devices plate reader. The data of rate as a function of the inhibitor concentration was fitted to compettive inhibition kinetics model to get the Ki for the compound.

The target in a further assay is T2, activated JNK3 (Homo sapiens, UniProt P53779).
T2 construct: One such construct encodes amino acid residues Ser40-Glu402 of JNK3α1 and is preceded by Met and Gly residues; Met-Gly dipeptide (initiator Met plus Gly added for the NcoI site) (N); made in house; host or cells: E. coli BL21 (DE3)
Nature of the assay: JNK inhibition assay (spectrophotometric coupled-enzyme assay). An excerpt: A BLAST search of the EST database using the published JNK3α1 cDNA as a query identified an EST clone (#632588) that contained the entire coding sequence for human JNK3α1. Polymerase chain reactions (PCR) using pfu polymerase (Strategene) were used to introduce restriction sites into the cDNA for cloning into the pET-15B expression vector at the NcoI and BamHI sites. The protein was expressed in E. coli. Due to the poor solubility of the expressed full-length protein (Met 1-Gln 422), an N-terminally truncated protein starting at Ser residue at position 40 (Ser 40) was produced. This truncation corresponds to Ser 2 of JNK1 and JNK2 proteins, and is preceded by a methionine (initiation) and a glycine residue. The glycine residue was added in order to introduce an NcoI site for cloning into the expression vector. In addition, systematic C-terminal truncations were performed by PCR to identify a construct that give rise to diffraction-quality crystals. One such construct encodes amino acid residues Ser40-Glu402 of JNK3α1 and is preceded by Met and Gly residues.
The construct was prepared by PCR using deoxyoligonucleotides: 5′ […] 3′ (forward primer with initiation codon underlined)(SEQ ID NO:1) and 5′ […] 3′ (reverse primer with stop codon underlined)(SEQ ID NO:2) as primers and was confirmed by DNA sequencing.
E.coli strain BL21 (DE3) (Novagen) was transformed with the JNK3 expression construct and grown at 30° C. in LB supplemented with 100 μg/ml carbenicillin in shaker flasks until the cells were in log phase (OD600˜0.8). Isopropylthio-β-D-[…] (IPTG) was added to a final concentration of 0.8 mM and the cells were harvested 2 hours later by centrifugation.
E. coli cell paste containing JNK3 was resuspended in 10 volumes/g lysis buffer (50 mM HEPES, pH 7.2, containing 10% glycerol (v/v), 100 mM NaCl, 2 mM DTT, 0.1 mM PMSF, 2 μg/ml Pepstatin, lug/ml each of E-64 and Leupeptin). Cells were lysed on ice using a microfluidizer and centrifuged at 100,000×g for 30 min at 4° C. The 100,000×g supernatant was diluted 1:5 with Buffer A (20 mM HEPES, pH 7.0, 10% glycerol (v/v), 2 mM DTT) and purified by SP-Sepharose (Pharmacia) cation-exchange chromatography (column dimensions: 2.6×20 cm) at 4° C. The resin was washed with 5 column volumes of Buffer A, followed by 5 column volumes of Buffer A containing 50 mM NaCl. Bound JNK3 was eluted with a 7.5 column volume linear gradient of 50-300 mM NaCl. JNK3 eluted between 150-200 mM NaCl.
Five mg of JNK3 was diluted to 0.5 mg/ml in 50 mM HEPES buffer, pH 7.5, containing 100 mM NaCl, 5 mM DTT, 20 mM MgCl2 and 1 mM ATP. GST-MKK7(DD) was added at a molar ratio of 1:2.5 GST-MKK7:JNK3. After incubation for 30 minutes at 25° C., the reaction mixture was concentrated 5-fold by ultrafiltration in a Centriprep-30 (Amicon, Beverly, Mass.), diluted to 10 ml and an additional 1 mM ATP added. This procedure was repeated three times to remove ADP and replenish ATP. The final addition of ATP was 5 mM and the mixture incubated overnight at 4° C.
The activated JNK3/GST-MKK7(DD) reaction mixture was exchanged into 50 mM HEPES buffer, pH 7.5, containing 5 mM DTT and 5% glycerol (w/v) by dialysis or ultrafiltration. The reaction mixture was adjusted to 1.1 M potassium phosphate, pH 7.5, and purified by hydrophobic interaction chromatography (at 25° C.) using a Rainin Hydropore column. […] Activated JNK3 (i.e. doubly phosphorylated JNK3) was stored at −70° C. at 0.25-1 mg/ml.
Compounds were assayed for the inhibition of JNK3 by a spectrophotometric coupled-enzyme assay. In this assay, a fixed concentration of activated JNK3 (10 nM) was incubated with various concentrations of a potential inhibitor dissolved in DMSO for 10 minutes at 30° C. in a buffer containing 0.1 M HEPES buffer, pH 7.5, containing 10 mM MgCl2, 2.5 mM phosphoenolpyruvate, 200 μM NADH, 150 μg/mL pyruvate kinase, 50 μg/mL lactate dehydrogenase, and 200 μM EGF receptor peptide. […]

Another assay deals with human Lck kinase (UniProt P06239). The experiment in a line: Lck inhibition assay (A: radioactivity-based or B: spectrophotometric coupled-enzyme assay). The settings on record: read-out: Lck Activity (Ki rating). The protocol: The compounds were evaluated as inhibitors of human Lck kinase using either a radioactivity-based assay or spectrophotometric assay.
The compounds were assayed as inhibitors of full length bovine thymus Lck kinase (from Upstate Biotechnology, cat. no. 14-106) expressed and purified from baculo viral cells. Lck kinase activity was monitored by following the incorporation of ^33p from ATP into the tyrosine of a random poly Glu-Tyr polymer substrate of composition, Glu:Tyr=4:1 (Sigma, cat. no. P-0275). The following were the final concentrations of the assay components: 0.025 M HEPES, pH 7.6, 10 mM MgCl2, 2 mM DTT, 0.25 mg/ml BSA, 10 μM ATP (1-2 μCi ^33P-ATP per reaction), 5 mg/ml poly Glu-Tyr, and 1-2 units of recombinant human […] kinase. In a typical assay, all the reaction components with the exception of ATP were pre-mixed and aliquoted into assay plate wells. Inhibitors dissolved in DMSO were added to the wells to give a final DMSO concentration of 2.5%. The assay plate was incubated at 30 C. for 10 min before initiating the reaction with ^33P-ATP. After 20 min of reaction, the reactions were quenched with 150 μl of 10% trichloroacetic acid (TCA) containing 20 mM Na3PO4. The quenched samples were then transferred to a 96-well filter plate (Whatman, UNI-Filter GF/F Glass Fiber Filter, cat no. 7700-3310) installed on a filter plate vacuum manifold. Filter plates were washed four times with 10% TCA containing 20 mM Na3PO4 and then 4 times with methanol. 200 μl of scintillation fluid was then added to each well. The plates were sealed and the amount of radioactivity associated with the filters was quantified on a TopCount scintillation counter. The radioactivity incorporated was plotted as a function of the inhibitor concentration. The data was fitted to a competitive inhibition kinetics model to get the Ki for the compound.
The ADP produced from ATP by the human recombinant Lck kinase-catalyzed phosphorylation of poly Glu-Tyr substrate was quanitified using a coupled enzyme assay (Fox et al (1998) Protein Sci 7, 2249). In this assay one molecule of NADH is oxidised to NAD for every molecule of ADP produced in the kinase reaction. The disappearance of NADH can be conveniently followed at 340 nm.
The following were the final concentrations of the assay components: 0.025 M HEPES, pH 7.6, 10 mM MgCl2, 2 mM DTT, 5 mg/ml poly Glu-Tyr, and 50 nM of recombinant human Lck kinase. Final concentrations of the components of the coupled enzyme system were 2.5 mM phosphoenolpyruvate, 200 μM NADH, 30 μg/ml pyruvate kinase and 10 μg/ml lactate dehydrogenase.
In a typical assay, all the reaction components with the exception of ATP were pre-mixed and aliquoted into assay plate wells. Inhibitors dissolved in DMSO were added to the wells to give a final DMSO concentration of 2.5%. The assay plate was incubated at 30° C. for 10 min before initiating the reaction with 150 μM ATP. The absorbance change at 340 nm with time, the rate of the reaction, was monitored on a molecular devices plate reader. The data of rate as a function of the inhibitor concentration was fitted to competitive inhibition kinetics model to get the Ki for the compound.

Some results are limits rather than exact numbers.

T2 sequence (P53779 40-402): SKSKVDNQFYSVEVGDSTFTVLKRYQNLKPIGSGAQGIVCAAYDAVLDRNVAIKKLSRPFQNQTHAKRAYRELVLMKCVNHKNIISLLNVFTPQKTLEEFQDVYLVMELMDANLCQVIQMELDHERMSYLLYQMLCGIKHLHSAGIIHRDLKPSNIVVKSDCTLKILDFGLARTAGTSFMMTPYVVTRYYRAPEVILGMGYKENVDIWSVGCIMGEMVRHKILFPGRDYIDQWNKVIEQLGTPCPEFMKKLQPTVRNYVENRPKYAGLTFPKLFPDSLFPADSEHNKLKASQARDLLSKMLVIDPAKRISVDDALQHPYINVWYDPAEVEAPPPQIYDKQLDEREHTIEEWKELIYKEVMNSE
T1 sequence (P12931 whole entry): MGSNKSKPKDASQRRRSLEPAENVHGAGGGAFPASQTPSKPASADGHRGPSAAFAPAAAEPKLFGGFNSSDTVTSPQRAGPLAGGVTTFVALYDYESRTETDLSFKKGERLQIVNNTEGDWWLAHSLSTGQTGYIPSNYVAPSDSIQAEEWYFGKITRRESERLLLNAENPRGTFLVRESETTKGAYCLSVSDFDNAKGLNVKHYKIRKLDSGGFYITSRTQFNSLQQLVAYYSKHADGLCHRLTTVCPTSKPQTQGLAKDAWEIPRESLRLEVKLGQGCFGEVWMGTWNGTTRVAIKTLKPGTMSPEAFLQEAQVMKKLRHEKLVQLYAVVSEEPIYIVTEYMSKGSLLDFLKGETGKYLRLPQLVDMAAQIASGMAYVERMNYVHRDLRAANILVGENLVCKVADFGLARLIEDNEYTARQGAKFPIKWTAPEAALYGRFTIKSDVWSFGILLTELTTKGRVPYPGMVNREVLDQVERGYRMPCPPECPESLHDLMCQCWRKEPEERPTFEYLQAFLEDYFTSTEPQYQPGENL

In the case of `CSc1sc(-c2nc(C)cs2)c(C)c1-c1ccnc(Nc2ccccc2)n1` [IIb-1, {4-[4-methyl-2-methylsulfanyl-5-(4-methyl-thiazol-2-yl)-thiophen-3-yl]-pyrimidin-2-yl}-phenylamine], the “Src Activity (percent inhibition class D-F)” value at human Src kinase was “D (Compounds having an activity designated as “D” provided a percent inhibition less than or equal to 24%)”. Also, the “JNK3 Activity (percent inhibition class D-F)” value on activated JNK3 (inhibitor concentration not given) was “D (Compounds having an activity designated as “D” provided a percent inhibition less than or equal to 24%)”.
For `Cc1cnc(Nc2ccccc2)nc1-c1sc(SCc2ccc(O)cc2)c(C#N)c1-c1cccc(Cl)c1` [Compound V-1, 4-(3-chloro-phenyl)-2-(4-hydroxy-benzylsulfanyl)-5-(5-methyl-2-phenylamino-pyrimidin-4-yl)-thiophene-3-carbonitrile], the Ki was 0.1 to 1 µM at activated JNK3 (activated JNK3 10 nM, 10 μM ATP, 30° C., read-out: JNK3 Activity (Ki class A-C)) and under 0.1 µM at human Lck kinase.

Source of the values: US6642227B2, “Inhibitors of c-Jun N-terminal kinases (JNK) and other protein kinases” (Vertex Pharmaceuticals Incorporated, priority 2001, dated 2003).
